One compound from ChEMBL document CHEMBL3879901, “Substituted isoquinolin-1(2H)-ones, and methods of use thereof” (2012) can be followed below.

Structures are written as SMILES. Activity calls are given as the source filed them. The rule behind the calls is not given here.

Data set [1] has as its system Rattus norvegicus. Kind of data set: Antiarthritic activity in type 2 collagen-induced Lewis rat arthritis model assessed as reduction in ankle pannus at 60 mg/kg, po administered every 12 hrs for 16 days measured on day 17 of post last dose by toluidine blue staining-based assay. Type of data set: functional, organism-based.
The species entered for data set [2] is Mus musculus. The data set can be described thus: Inhibition of TNP-Ficoll or TNP-KHL-stimulated IgE response in mouse in presence of mTOR inhibitor rapamycin by ELISA. Type of data set: functional.
Data set [3] concerns Rattus norvegicus. Kind of data set: Antiarthritic activity in complete freund's adjuvant-induced intrathecally dosed Lewis rat arthritis model assessed as reduction in paw volume administered on day 8 to 20 post arthritis induction measured every second day of compound dosing by water displacement plethysmometry. Type of data set: functional, organism-based.
In data set [4] the test system is Mus musculus. Kind of data set: Reduction of TNP-Ficoll-induced T cell independent B cell activation in BDA-1 mouse assessed as decrease in IgG3 levels in serum at 3 mg/kg, po bid administered for 7 days by ELISA relative to control. Type of data set: functional.
The nature of data set [5]: Toxicity in complete freund's adjuvant-induced intrathecally dosed Lewis rat arthritis model assessed as body weight loss at 10 to 60 mg/kg, administered intrathecally on day 8 to 20 post arthritis induction measured every second day of compound dosing. Type of data set: organism-based. As to conditions: in vivo, icv_or_intrathecal.
The test system of data set [6] is Rattus norvegicus. Kind of data set: Antiarthritic activity in type 2 collagen-induced Lewis rat arthritis model assessed as reduction in bone resorption in ankle at 60 mg/kg, po administered every 12 hrs for 16 days measured on day 17 of post last dose by toluidine blue staining-based assay. Type of data set: functional, organism-based.
Data set [7] deals with Rattus norvegicus. Kind of data set: Antiarthritic activity in type 2 collagen-induced Lewis rat arthritis model assessed as reduction in serum anti-type 2 collagen levels at 10 mg/kg, po administered every 12 hrs for 16 days measured on day 17 of post last dose by ELISA relative to control. Type of data set: functional. Also on record: scale not given: the % may be the effect or the level left.

Data set [8] has as its target PI3K p110 beta/p85 alpha (Homo sapiens, UniProt P42338). The data set can be described thus: Inhibition of N-terminal His6-tagged recombinant full-length human p110beta/untagged recombinant full length p85alpha expressed in baculovirus infected Sf21 cells using phosphatidylinositol as substrate in presence of gamma-32P-ATP after 5 mins by thin layer chromatographic method.

PI3K p110 beta/p85 alpha, sequence (P27986 whole entry): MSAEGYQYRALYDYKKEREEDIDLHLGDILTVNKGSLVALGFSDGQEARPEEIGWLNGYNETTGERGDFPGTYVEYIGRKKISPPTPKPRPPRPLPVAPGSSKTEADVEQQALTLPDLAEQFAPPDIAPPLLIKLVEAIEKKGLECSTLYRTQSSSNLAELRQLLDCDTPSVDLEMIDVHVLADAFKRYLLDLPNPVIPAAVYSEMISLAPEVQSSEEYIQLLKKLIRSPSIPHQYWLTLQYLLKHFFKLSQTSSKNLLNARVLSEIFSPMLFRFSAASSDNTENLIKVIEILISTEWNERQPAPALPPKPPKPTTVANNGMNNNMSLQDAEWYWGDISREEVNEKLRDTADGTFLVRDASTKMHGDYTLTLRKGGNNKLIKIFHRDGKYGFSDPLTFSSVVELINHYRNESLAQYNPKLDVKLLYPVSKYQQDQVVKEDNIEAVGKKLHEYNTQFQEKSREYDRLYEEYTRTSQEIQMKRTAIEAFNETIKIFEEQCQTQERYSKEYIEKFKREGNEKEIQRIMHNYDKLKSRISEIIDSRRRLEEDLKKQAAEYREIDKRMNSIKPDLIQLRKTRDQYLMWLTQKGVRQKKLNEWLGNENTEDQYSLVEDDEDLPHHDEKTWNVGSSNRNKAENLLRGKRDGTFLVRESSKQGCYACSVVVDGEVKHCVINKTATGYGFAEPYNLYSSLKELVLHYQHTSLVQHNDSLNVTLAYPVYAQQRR
PI3K p110 beta/p85 alpha, sequence (P42338 whole entry): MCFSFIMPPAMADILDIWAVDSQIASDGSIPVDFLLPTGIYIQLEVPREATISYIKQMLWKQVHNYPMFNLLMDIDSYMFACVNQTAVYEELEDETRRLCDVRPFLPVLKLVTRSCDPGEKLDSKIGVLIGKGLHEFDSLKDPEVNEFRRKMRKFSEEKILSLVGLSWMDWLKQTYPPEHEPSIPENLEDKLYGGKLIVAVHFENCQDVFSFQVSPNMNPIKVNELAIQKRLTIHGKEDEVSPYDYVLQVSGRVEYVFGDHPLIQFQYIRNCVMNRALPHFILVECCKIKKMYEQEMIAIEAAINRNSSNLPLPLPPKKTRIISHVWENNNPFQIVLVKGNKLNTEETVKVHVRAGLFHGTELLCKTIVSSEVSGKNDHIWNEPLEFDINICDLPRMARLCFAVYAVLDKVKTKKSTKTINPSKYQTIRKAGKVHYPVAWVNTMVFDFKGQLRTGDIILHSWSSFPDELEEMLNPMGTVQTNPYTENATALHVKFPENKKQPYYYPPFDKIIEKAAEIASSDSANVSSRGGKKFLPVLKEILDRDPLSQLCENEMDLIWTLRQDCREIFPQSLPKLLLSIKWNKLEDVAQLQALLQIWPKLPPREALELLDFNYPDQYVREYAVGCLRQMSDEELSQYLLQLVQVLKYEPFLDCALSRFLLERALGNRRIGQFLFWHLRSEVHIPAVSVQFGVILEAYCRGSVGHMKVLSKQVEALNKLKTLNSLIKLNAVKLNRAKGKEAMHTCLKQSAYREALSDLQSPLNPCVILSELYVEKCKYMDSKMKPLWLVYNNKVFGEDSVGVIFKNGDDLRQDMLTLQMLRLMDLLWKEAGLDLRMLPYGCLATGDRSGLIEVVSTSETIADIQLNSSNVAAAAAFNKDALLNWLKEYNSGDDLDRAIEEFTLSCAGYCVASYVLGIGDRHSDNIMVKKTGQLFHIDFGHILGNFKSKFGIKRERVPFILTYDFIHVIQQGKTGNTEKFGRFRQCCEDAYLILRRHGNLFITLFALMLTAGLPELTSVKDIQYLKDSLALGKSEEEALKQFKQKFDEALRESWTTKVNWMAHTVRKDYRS

As to `CC(=O)Nc1nc2ccc(-c3nn(Cc4cc5cccc(C)c5c(=O)n4-c4ccccc4C)c4ncnc(N)c34)cc2s1`, the outcome in data set [1] and in data set [6] was Active. The inhibition entry in data set [2] is “Active”. Also, the Activity result in data set [3] was “Dose-dependent effect”; in data set [5] it was “Toxic”; in data set [7], 75%. In addition, the “fold change (FC)” value in data set [4] is 0.8. The IC50 in data set [8] was less than 10 µM.
